From patent US20190209539A1, “THIOHYDANTOIN ANDROGEN RECEPTOR ANTAGONISTS FOR THE TREATMENT OF CANCER” (Janssen Pharmaceutica NV, priority 2016, published 2019)
Numbering of substitutions follows the chain as printed.

What was measured:
[1] = molecular target: T1, F876L mutant Androgen Receptor (AR-F876L) (Homo sapiens, UniProt P10275, F877L); experiment: LNCaP-AR-F876L AG: ARE luciferase reporter assay, agonist mode; type: cell-based
T1 construct: expressed in transfected cells; host or cells: LNCaP F876L cells with ARE firefly luciferase lentiviral construct
T1 sequence (P10275 1-920 F877L): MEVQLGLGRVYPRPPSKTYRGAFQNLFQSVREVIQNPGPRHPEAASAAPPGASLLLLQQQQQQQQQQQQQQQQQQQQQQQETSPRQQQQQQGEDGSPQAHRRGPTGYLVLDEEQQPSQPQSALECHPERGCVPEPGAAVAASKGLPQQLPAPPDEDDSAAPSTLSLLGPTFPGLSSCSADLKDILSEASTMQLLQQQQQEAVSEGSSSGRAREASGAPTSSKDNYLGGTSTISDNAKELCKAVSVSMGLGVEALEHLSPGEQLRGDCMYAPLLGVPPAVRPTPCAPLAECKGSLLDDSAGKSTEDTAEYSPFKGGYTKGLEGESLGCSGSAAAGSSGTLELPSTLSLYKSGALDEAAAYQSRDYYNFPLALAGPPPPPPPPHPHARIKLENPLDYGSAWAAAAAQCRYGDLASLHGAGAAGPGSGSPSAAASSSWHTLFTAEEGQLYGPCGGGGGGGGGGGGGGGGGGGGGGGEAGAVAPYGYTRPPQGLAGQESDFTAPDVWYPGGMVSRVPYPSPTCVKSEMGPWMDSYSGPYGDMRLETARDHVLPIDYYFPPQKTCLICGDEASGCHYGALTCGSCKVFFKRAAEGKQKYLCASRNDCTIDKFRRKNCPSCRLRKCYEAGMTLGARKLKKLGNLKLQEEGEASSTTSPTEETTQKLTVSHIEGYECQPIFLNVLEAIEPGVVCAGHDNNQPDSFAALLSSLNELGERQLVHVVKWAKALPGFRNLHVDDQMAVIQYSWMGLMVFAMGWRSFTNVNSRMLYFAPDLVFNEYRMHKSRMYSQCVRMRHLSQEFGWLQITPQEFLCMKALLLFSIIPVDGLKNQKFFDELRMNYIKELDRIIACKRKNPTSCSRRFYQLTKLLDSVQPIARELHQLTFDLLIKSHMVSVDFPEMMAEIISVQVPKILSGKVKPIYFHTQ
Experimental: (§1) A stable pooled-population cell line was generated using puromycin (Life Technologies) selection at 1:10,000 v/v. The protocol below was used for both cell lines and for testing of the compounds of Formula (I) of the present invention.
(§2) LNCaP cells were grown to about 80% confluence, media removed and cells rinsed in Hank's balanced salt solution prior to separation from the plate with 0.05% Trypsin EDTA. Cells were lifted and trypsin negated in complete CSS (charcoal stripped serum) culture media. […] Agonist challenge was at 400 pM for WT assay and 600 pM for F876L assay. Plates containing cells and compounds herein were incubated for a further 20-24 hours at 37° C., 5% CO2 before addition of 40 μL/well of Steady-Glo Luciferase Assay System Reagent (Promega# E2520). After 1 h, plates were read for luminescence on a BMG Pherastar.
(§3) EC/IC50 calculations were achieved utilizing calculated RLU data and data fitting macros. Data were fit using least-squares methods to the following formula: […]
(§4) As used herein: pIC50 is defined as—Log10(IC50 expressed in [Molar]). pEC50 is defined as—Log10(EC50 expressed in [Molar]). […] LNCaP-AR-wt ANT refers to the reporter assay using LNCaP cells stably transfected with the Androgen Response Element Firefly Luciferase lentiviral construct and wild-type Androgen Receptor (AR-wt) in Antagonist mode. LNCaP-AR-wt AG refers to the reporter assay using LNCaP cells stably transfected with the Androgen Response Element Firefly Luciferase lentiviral construct and wild-type Androgen Receptor (AR-wt) in Agonist mode. LNCaP-AR-F876L ANT refers to the reporter assay using LNCaP cells stably transfected with the Androgen Response Element Firefly Luciferase lentiviral construct and F876L mutant Androgen Receptor (AR-F876L) in Antagonist mode. LNCaP-AR-F876L AG refers to the reporter assay using LNCaP cells stably transfected with the Androgen Response Element Firefly Luciferase lentiviral construct and F876L mutant Androgen Receptor (AR-F876L) in Agonist mode.

[2] = test system: androgen dependent signaling (androgen sensitive organs, ASO); experiment: Hershberger Assay; type: in vivo, Sprague-Dawley rats; settings: p≤0.05, in all 5 organs
Experimental: The effect of AR antagonists on androgen dependent signaling in vivo was assessed using the Hershberger assay. In this assay, peripubertal castrated male Sprague-Dawley rats were administered AR antagonists described herein in the presence of testosterone (0.4 mg/kg testosterone propionate) and the weights of androgen dependent organs measured. Dosing was continued for 10 days and measurements taken 24 h after the last dose. The extent of antagonism of AR and consequent inhibition of organ growth was evaluated by comparison to the castration control. Compounds of Formula (I) were dosed orally QD and an endpoint assessment made by change in weight of 5 androgen sensitive organs (ASO): Paired Cowper's Glands (CG), Seminal Vesicles with Fluids and Coagulating Glands (SVCG), Glans Penis (GP), Ventral Prostate (VP) and Levator Ani-Bulbocavernosus Complex (LABC)). According to assay guidelines, statistically significant suppression of ASO is required in 2 of 5 organs for a compound to be classified as an anti-androgen (analysis was performed by t-test/Mann-Whitney).
Compounds defined herein were administered at the indicated dose (mg/kg) and flutamide (FT), positive control, at 3 mg/kg. […]

[3] = molecular target: T2, wild-type Androgen Receptor (AR-wt) (Homo sapiens, UniProt P10275); experiment: LNCaP-AR-wt AG: ARE luciferase reporter assay, agonist mode; type: cell-based
T2 construct: expressed in transfected cells; host or cells: LNCaP AR (cs) cells with ARE firefly luciferase lentiviral construct
T2 sequence (P10275 1-920): T1 sequence (P10275 1-920 F877L) with L877F
Experimental: as §1, §2, §3, §4

T877A AR mutant = molecular target: T3, T877A AR mutant (Homo sapiens, UniProt P10275, T878A); settings: cited from earlier work
T3 sequence (P10275 1-920 T878A): T1 sequence (P10275 1-920 F877L) with L877F, T878A

[4] = molecular target: T2, wild-type Androgen Receptor (AR-wt); experiment: LNCaP-AR-wt ANT: ARE luciferase reporter assay, antagonist mode; type: cell-based
Experimental: as §1, §2, §3
(§5) As used herein: pIC50 is defined as—Log10(IC50 expressed in [Molar]). pEC50 is defined as—Log10(EC50 expressed in [Molar]). […] LNCaP-AR-wt ANT refers to the reporter assay using LNCaP cells stably transfected with the Androgen Response Element Firefly Luciferase lentiviral construct and wild-type Androgen Receptor (AR-wt) in Antagonist mode. […]

[5] = molecular target: T1, F876L mutant Androgen Receptor (AR-F876L); experiment: LNCaP-AR-F876L ANT: ARE luciferase reporter assay, antagonist mode; type: cell-based
Experimental: as §1, §2, §3, §5

[6] = maximum % stimulation (agonist response), % of 1 μM R-1881 max

**Q.** For `CN1CCN(CCCc2ccc(N3C(=S)N(c4cnc(C#N)c(C(F)(F)F)c4)C(=O)C34CCC4)cc2)CC1` [Cpd 43, 5-[8-[4-[3-(4-methylpiperazin-1-yl)propyl]phenyl]-5-oxo-7-thioxo-6,8-diazaspiro[3.4]octan-6-yl]-3-(trifluoromethyl)pyridine-2-carbonitrile], which “LNCaP-AR-F876L AG MAX % Stim” value [1, 6] is on record?
**A.** Its value is 0.4%.

**Q.** What about the “reduction in ASO versus TP control” value [2] of the same compound?
**A.** The value was “significant reduction”.

**Q.** And the “LNCaP-AR-wt AG MAX % Stim” value [3, 6]?
**A.** The value was 0.7%.

**Q.** Which “activity in T877A AR mutant” value (T877A AR mutant) does the source give for `CC(C)(O)C(=O)Nc1ccc([N+](=O)[O-])c(C(F)(F)F)c1` [hydroxyflutamide] here?
**A.** The value was “act as AR agonists”.

**Q.** With `CNC(=O)c1ccc(N2C(=S)N(c3cnc(C#N)c(C)c3)C(=O)C23CCCC3)cc1F` [Cpd 65, 4-[7-(6-cyano-5-methyl-3-pyridyl)-6-oxo-8-thioxo-7,9-diazaspiro[4.4]nonan-9-yl]-2-fluoro-N-methyl-benzamide] as the compound, how does the IC50 ([4]; antagonist mode, 400 pM R-1881 challenge, read-out: LNCaP-AR-wt ANT pIC50 (converted)) read?
**A.** The IC50 was 417 nM.

**Q.** And the Emax ([4]; maximum % inhibition of R1881 control response over tested concentration range, read-out: LNCaP-AR-wt ANT MAX % Inh)?
**A.** Its Emax is 97.8%.

**Q.** What about the EC50 ([1]; agonist mode, read-out: LNCaP-AR-F876L AG pEC50 (converted)) of the same compound?
**A.** Its EC50 is over 15100 nM.

**Q.** What about the Emax ([1]; maximum % stimulation (agonist response), % of 1 μM R-1881 max, read-out: LNCaP-AR-F876L AG MAX % Stim) of the same compound?
**A.** The Emax was 0.8%.

**Q.** And the EC50 ([3]; agonist mode, read-out: LNCaP-AR-wt AG pEC50 (converted))?
**A.** The EC50 was over 15100 nM.

**Q.** What about the Emax ([3]; maximum % stimulation (agonist response), % of 1 μM R-1881 max, read-out: LNCaP-AR-wt AG MAX % Stim) of the same compound?
**A.** The Emax was 1.2%.

**Q.** What about the IC50 ([5]; antagonist mode, 600 pM R-1881 challenge, read-out: LNCaP-AR-F876L ANT pIC50 (converted)) of the same compound?
**A.** Its IC50 is 389 nM.

**Q.** And the Emax ([5]; maximum % inhibition of R1881 control response over tested concentration range, read-out: LNCaP-AR-F876L ANT MAX % Inh)?
**A.** Its Emax is 98.9%.

**Q.** Which “LNCaP-AR-F876L AG MAX % Stim” value [1, 6] does the source give for `CC(C)(O)CNC(=O)c1ccc(N2C(=S)N(c3cnc(C#N)c(C(F)(F)F)c3)C(=O)C23CCC3)cc1F` [Cpd 17, 4-[6-[6-cyano-5-(trifluoromethyl)-3-pyridyl]-5-oxo-7-thioxo-6,8-diazaspiro[3.4]octan-8-yl]-2-fluoro-N-(2-hydroxy-2-methyl-propyl)benzamide] here?
**A.** Its value is 0.1%.

**Q.** What about the “LNCaP-AR-wt AG MAX % Stim” value [3, 6] of the same compound?
**A.** The value was −0.1%.

**Q.** What does the source list for `COCCNC(=O)c1ccc(N2C(=S)N(c3cnc(C#N)c(C(F)(F)F)c3)C(=O)C23CCC3)cc1F` [Cpd 46, 4-[6-[6-cyano-5-(trifluoromethyl)-3-pyridyl]-5-oxo-7-thioxo-6,8-diazaspiro[3.4]octan-8-yl]-2-fluoro-N-(2-methoxyethyl)benzamide]?
**A.** LNCaP-AR-F876L AG MAX % Stim [1, 6]: 0.2%; LNCaP-AR-wt AG MAX % Stim [3, 6]: −0.1%
